Source: patent US10604784B2, “Method and device for antibiotic susceptibility testing based on fluctuations of electrical resistance in a microchannel” (TRUSTEES OF BOSTON UNIVERSITY, priority 2016, dated 2020)

Legend:
Assay type in all cases: cell-based
S. epidermidis = assay: Mean resistance based susceptibility test in the microchannel (bacterial growth); settings: broth/Vancomycin mixture, vancomycin 4 μg/ml, t=0 to 4 hrs
Method: After the bacteria are trapped, for the Mean Resistance based Susceptibility Test 410, at 412, the baseline mean (average or time-averaged measured resistance through the channel) resistance can be measured for a predefined period of time. The baseline mean can be determined as a function (e.g., the average or time-average) of the measured resistance through the channel for two or more points in time. After the baseline mean resistance is determined, at 414, the antibiotic is added to the solution, either via one of the reservoirs 110 or directly to the microchannel 120 and, at 416, the solution containing the bacteria and the antibiotic is allowed to incubate for a predefined period of time (e.g., 1-3 hours, although shorter or longer periods can be used). After the expiration of a predefined period of time, at 418, the mean resistance is determined (e.g., as a function of the measured resistance through the channel for two or more points in time) and, at 420, the mean resistance is compared to the baseline mean resistance. […]
In the experiment shown in FIGS. 14, 15 and 16, the susceptibility of S. epidermidis to Vancomycin was tested using the mean resistance based approach shown in the flowchart in FIG. 4. As discussed above, S. epidermidis is non-motile and readily settles in the microchannel. […]

resistant E. coli strain = assay: Electrical fluctuation based susceptibility test of immobilized bacteria in human urine/broth, resistant strain; settings: about 50 bacteria, urine/broth/antibiotic mixture, antibiotic concentration above MIC, FIG. 13B/13C
Method: (§1) After the bacteria are trapped, for the Electrical Fluctuation based Susceptibility Test 430, at 432, the system measures the fluctuations of the electrical signals (e.g., voltage or current) to determine a baseline RMS signal level (e.g., the RMS level determined as function of the measured signal fluctuations). Next, at 434, the antibiotic is added to the solution, either via one of the reservoirs 110 or directly to the microchannel 120. Next, at 436, the (RMS) fluctuations of the electrical signal (e.g., voltage or current) are measured again and an RMS level can be determined as a function of the measured signal fluctuations, and, at 440, the RMS level of the fluctuations of the electrical signal can be compared to the baseline RMS signal level. If the RMS level of the fluctuations of the electrical signal is greater than the baseline signal RMS level, then the bacteria can be considered resistant to the antibiotic at 442. If the RMS level of the fluctuations of the electrical signal is not greater than the baseline RMS signal level, the bacteria can be considered susceptible to attack by the antibiotic at 444.
(§2) FIGS. 13A, 13B, and 13C show the results of antibiotic susceptibility studies in human urine. In this example, two strains of E. coli are used, with one being resistant to the administered antibiotic, nalidixic acid. […]

[1] = test system: susceptible E. coli strain; assay: Electrical fluctuation based susceptibility test of immobilized bacteria in human urine/broth, susceptible strain; settings: about 50 bacteria, urine/broth/antibiotic mixture, antibiotic concentration above MIC, FIG. 13A/13C
Method: as §1, §2

Row | Structure (SMILES) | population size of bacteria in the antibiotic solution (S. epidermidis) | mean resistance value (change over time) (S. epidermidis; FIG. 16) | voltage fluctuations (RMS amplitude) over time after antibiotic is administered (resistant E. coli strain) | voltage fluctuations (RMS amplitude) over time after antibiotic is administered [1]
1 | CN[C@H](CC(C)C)C(=O)N[C@H]1C(=O)N[C@@H](CC(N)=O)C(=O)N[C@H]2C(=O)N[C@H]3C(=O)N[C@H](C(=O)N[C@H](C(=O)O)c4cc(O)cc(O)c4-c4cc3ccc4O)[C@H](O)c3ccc(c(Cl)c3)Oc3cc2cc(c3O[C@@H]2O[C@H](CO)[C@@H](O)[C@H](O)[C@H]2O[C@H]2C[C@](C)(N)[C@H](O)[C@H](C)O2)Oc2ccc(cc2Cl)[C@H]1O [Vancomycin] | the population size stays the same | does not change noticeably |  | 
2 | CCn1cc(C(=O)O)c(=O)c2ccc(C)nc21 [nalidixic acid] |  |  | do not show significant changes over time | decay rather quickly
